Columns and labels:
MOLM13 cells = assay: Apoptosis assay (FITC Annexin V), MOLM13 cells; assay type: cell-based; settings: MOLM13 cells, 1, 2 and 4 μM for 24 h
Method: (§1) Apoptotic cells were measured by the FITC Annexin V Apoptosis Detection Kit (BD Biosciences).
(§2) MV4; 11 or MOLM13 cells were seeded at 0.2×10^6 cells/mL density. Cells were treated with DMSO or ENL degraders at indicated concentrations. Each treatment was done in triplicates. After 24 h treatment, cells were collected and washed with ice-cold PBS once and resuspended in 250 μL of 1× binding buffer containing 5 μL of FITC-Annexin V and PI (BD Biosciences). After 15 min incubation at room temperature in the dark, 250 μL of 1× binding buffer was added and flow cytometry analysis was performed.

ENL target genes = assay: RT-qPCR of ENL target genes in MOLM13 cells; assay type: cell-based; settings: MOLM13 cells, 8 μM for 24 h
Method: MOLM13 cells were treated with LQ076-122 (FIG. 14A) and LQ081-108 (FIG. 14B) at 0.5, 1, 2, 4, and 8 μM for 24 h. […] RT-qPCR analysis was performed to detect the mRNA levels of selected ENL target genes.
Total RNA was extracted using the RNeasy Plus kit (Qiagen) and reverse-transcribed using the iScript cDNA Synthesis kit (Bio-Rad). RT-qPCR was performed using the Power SYBR Green PCR Master Mix (Applied Biosystems) on the CFX96 Real-Time PCR system (Bio-Rad). Gene expressions were calculated following normalization to 18s rRNA amounts using the comparative cycle threshold (Ct) method.

MV4; 11 cells = assay: Apoptosis assay (FITC Annexin V), MV4; 11 cells; assay type: cell-based; settings: 11 cells, 1, 2 and 4 μM for 24 h
Method: as §1, §2

[1] = system: ENL-dependent MLL-rearranged leukemia cells; settings: cited from earlier work

C[C@H]1CCCN1Cc1nc2cc(NC(=O)c3ccc4c(cnn4C)c3)ccc2[nH]1 [SGC-iMLLT, reference compound]
induction of apoptosis (MOLM13 cells): but not the negative control compound LQ108-4 or SGC-iMLLT, induced apoptosis | ENL target gene expression (mRNA levels) (ENL target genes): did not dramatically affect these genes | induction of apoptosis (MV4; 11 cells): but not the negative control compound LQ108-4 or SGC-iMLLT, induced apoptosis | inhibition of cell growth [1]: largely ineffective in inhibiting the growth
